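A five-concentration, 48-hour dose response in 96-well plates underlies each endpoint, interpolated linearly between surrounding concentrations. GI50 marks 50% less growth. TGI: concentration producing complete growth inhibition.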 Bounds are passed on as bounds.

Test systems include SF-539 CNS; SK-MEL-5 melanoma; OVCAR-8 ovarian; CAKI-1 renal; MDA-MB-435; SN12C renal; T-47D breast; NCI-H460 lung; CCRF-CEM leukemia; HL-60(TB) leukemia.
Test in all cases: NCI tumour cell line growth inhibition, 48 h

As to `CCNc1cc2oc(=O)cc(C(F)(F)F)c2cc1C`, the TGI in the test on SF-539 CNS, in the test with SK-MEL-5 melanoma, in the test on OVCAR-8 ovarian, in the test on CAKI-1 renal, with MDA-MB-435 and in the test on SN12C renal was over 100 µM throughout. In addition, the TGI with T-47D breast and with NCI-H460 lung was over 100 µM throughout.

On to `C[C@]12CC[C@@H]3c4ccc(O)cc4CC[C@H]3[C@@H]1CC[C@@H]2NS(=O)(=O)c1cccc(Cl)c1`, for which the GI50 in the test with SF-539 CNS was 1.76 µM; in the test on SK-MEL-5 melanoma, 1.72 µM; in the test with OVCAR-8 ovarian, 3.27 µM; with CAKI-1 renal, 2.97 µM; in the test on MDA-MB-435, 2.63 µM; in the test with CCRF-CEM leukemia it was 2.94 µM. Also, the GI50 with SN12C renal is 1.8 µM; in the test on T-47D breast, 3.49 µM; with NCI-H460 lung, 2.24 µM. The TGI came out at 3.45 µM in the test with SF-539 CNS; 3.22 µM in the test with SK-MEL-5 melanoma; 13.3 µM in the test with OVCAR-8 ovarian; 10.6 µM in the test with CAKI-1 renal; 8.7 µM in the test on MDA-MB-435; 14.4 µM in the test on CCRF-CEM leukemia. Further, the figures for the TGI in the test with SN12C renal, with T-47D breast and in the test with NCI-H460 lung were 3.8 µM, 11.3 µM and 5.02 µM, respectively.

In the case of `CCCCC[C@H]1CC=C2C(=O)C=C[C@@H]2CC=CCCCC(=O)O[C@@H](CCCCC)CC=C2C(=O)C=C[C@@H]2CC=CCCCC(=O)O[C@@H](CCCCC)CC=C2C(=O)C=C[C@@H]2CC=CCCCC(=O)O1`, the GI50 in the test with SF-539 CNS is 0.322 µM; in the test with SK-MEL-5 melanoma, 0.737 µM; in the test on HL-60(TB) leukemia, 0.243 µM; with OVCAR-8 ovarian, 0.277 µM; in the test with MDA-MB-435, 0.183 µM; in the test on CCRF-CEM leukemia, 0.251 µM. For the same compound, the GI50 is 0.277 µM in the test on SN12C renal, 0.195 µM with T-47D breast and 0.488 µM in the test on NCI-H460 lung. In addition, the TGI with SF-539 CNS was over 8.75 µM; in the test on SK-MEL-5 melanoma, 1.87 µM; in the test with HL-60(TB) leukemia it was 0.76 µM; in the test on OVCAR-8 ovarian, over 8.75 µM; in the test on MDA-MB-435 it was 0.526 µM; in the test on CCRF-CEM leukemia, over 8.75 µM. In addition, the TGI in the test on SN12C renal was over 8.75 µM; with T-47D breast, 0.713 µM; with NCI-H460 lung it was 2.87 µM.

`Cc1cn(CCC(N)C(=O)O)c(=O)[nH]c1=O` (stereo not given): the TGI with SF-539 CNS, in the test on SK-MEL-5 melanoma, in the test on HL-60(TB) leukemia, with OVCAR-8 ovarian, in the test on MDA-MB-435 and in the test with CCRF-CEM leukemia was over 100 µM each time. The TGI in the test on SN12C renal, with T-47D breast and with NCI-H460 lung was over 100 µM throughout.

As for `O=C1CSC(c2ccc(-c3nc4ccccc4[nH]3)cc2)=N1`, the GI50 in the test with SF-539 CNS was 12.2 µM; in the test with SK-MEL-5 melanoma, 13 µM; with HL-60(TB) leukemia, over 50 µM; in the test with OVCAR-8 ovarian, 23 µM; with CAKI-1 renal, over 50 µM; in the test with MDA-MB-435, 32.5 µM. The GI50 with SN12C renal is over 50 µM; with T-47D breast it was over 50 µM; with NCI-H460 lung it was 3.27 µM. Moreover, the TGI was 42.1 µM in the test on SF-539 CNS; over 50 µM with SK-MEL-5 melanoma; over 50 µM in the test with HL-60(TB) leukemia; over 50 µM in the test on OVCAR-8 ovarian; over 50 µM in the test on CAKI-1 renal; over 50 µM with MDA-MB-435. Further, the TGI in the test with SN12C renal, in the test on T-47D breast and in the test on NCI-H460 lung was over 50 µM throughout.

As to `COc1cc(OC)cc(-c2nc3sccn3c2/C=N/N=C(N)N)c1`, the GI50 is 8.26 µM in the test with SF-539 CNS; 8.34 µM in the test on SK-MEL-5 melanoma; 9.85 µM with OVCAR-8 ovarian; 8.03 µM with CAKI-1 renal; 8.71 µM in the test on MDA-MB-435; 10.9 µM in the test with CCRF-CEM leukemia. Besides, the values for the GI50 in the test on SN12C renal, in the test on T-47D breast and with NCI-H460 lung were 7 µM, 7.23 µM and 13.3 µM, respectively. Besides, the TGI in the test on SF-539 CNS turned out to be 15.7 µM; in the test on SK-MEL-5 melanoma, 15.2 µM; in the test with OVCAR-8 ovarian it was 20.8 µM; in the test with CAKI-1 renal, 15.2 µM; in the test on MDA-MB-435, 16.1 µM; in the test with CCRF-CEM leukemia, 19.5 µM. The results for the TGI in the test on SN12C renal, in the test on T-47D breast and in the test on NCI-H460 lung were 13.6 µM, 17.6 µM and 42.9 µM, respectively.

Consider `CCN(CC)CCCOc1ccc2ncnc(Nc3ccc(Oc4cccc(C(F)(F)F)c4)c(Cl)c3)c2c1`, for which the GI50 in the test on SF-539 CNS was 1.74 µM; in the test with CAKI-1 renal it was 1.4 µM; in the test with MDA-MB-435 it was 1.65 µM; with CCRF-CEM leukemia, 2.26 µM; with SN12C renal, 1.34 µM; with T-47D breast, 1.41 µM. Besides, in the test on NCI-H460 lung, the GI50 was 1.78 µM. Also, the TGI in the test on SF-539 CNS was 3.17 µM; in the test on CAKI-1 renal it was 3.1 µM; in the test on MDA-MB-435 it was 3.22 µM; in the test with CCRF-CEM leukemia, 14.2 µM; with SN12C renal it was 2.69 µM; in the test with T-47D breast it was 3.76 µM. Also, in the test with NCI-H460 lung, the TGI was 3.33 µM.

Take `O=C(O)C1CCN(Cc2oc(CO)cc(=O)c2O)C1` (stereo not given): the TGI in the test on SK-MEL-5 melanoma, with HL-60(TB) leukemia, in the test with OVCAR-8 ovarian, in the test on CAKI-1 renal, with MDA-MB-435 and in the test on CCRF-CEM leukemia was over 100 µM each time. In addition, the TGI in the test on SN12C renal, in the test with T-47D breast and in the test on NCI-H460 lung was over 100 µM in each case.

In the case of `COc1cc(-c2nn(-c3cccc(NC(=O)NCCNS(=O)(=O)c4ccc(Cl)cc4)c3)cc2-c2ccncc2)ccc1Cl`, the GI50 in the test with SF-539 CNS is 0.48 µM; in the test with SK-MEL-5 melanoma, 0.493 µM; with HL-60(TB) leukemia it was 0.466 µM; in the test on OVCAR-8 ovarian, 1.71 µM; in the test on MDA-MB-435, 0.207 µM; in the test with CCRF-CEM leukemia it was 0.419 µM. Moreover, the GI50 in the test with SN12C renal is 1.19 µM; with T-47D breast it was 0.646 µM; in the test with NCI-H460 lung it was 0.413 µM. Also, the TGI was 2.11 µM with SF-539 CNS; 1.83 µM with SK-MEL-5 melanoma; over 100 µM with HL-60(TB) leukemia; 8.48 µM in the test with OVCAR-8 ovarian; 0.515 µM with MDA-MB-435; over 100 µM with CCRF-CEM leukemia. Also, the TGI in the test with SN12C renal was determined as 13.2 µM; with T-47D breast it was 18.1 µM; with NCI-H460 lung it was 3.69 µM.
